The values below are quoted from earlier work in patent US10584074B2, “Microencapsulated nitrification inhibitor compositions” (Dow AgroSciences LLC, priority 2017, dated 2020).

SMILES strings stand for the structures.

For the data set the following is noted: at 23° Celsius.

In the case of `Clc1cccc(C(Cl)(Cl)Cl)n1` [nitrapyrin, 2-chloro-6-(trichloromethyl)pyridine], the vapor pressure was 2.8×10^−3 mm Hg.
